According to PubChem BioAssay (NCI):
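Dose response: 5 concentrations. Exposure: 48 h. Format: 96-well plates. Endpoint: linear interpolation; highest concentration if not reached. GI50: concentration for 50% inhibition of growth. At the TGI there is no net growth.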

Tests used:
Assay in all cases: inhibition of tumour cell growth, NCI panel, 48 h
[1] = tested on: HL-60(TB) leukemia
[2] = tested on: K-562 leukemia
[3] = tested on: T-47D breast
[4] = tested on: OVCAR-5 ovarian
[5] = tested on: SN12C renal
[6] = tested on: BT-549 breast
[7] = tested on: SK-OV-3 ovarian
[8] = tested on: COLO 205 colon
[9] = tested on: HCC-2998 colon
[10] = tested on: OVCAR-3 ovarian
[11] = tested on: MOLT-4 leukemia
[12] = tested on: HOP-92 NSCLC
[13] = tested on: NCI-H226 lung
[14] = tested on: KM12 colon
[15] = tested on: RXF 393 renal
[16] = tested on: SF-539 CNS
[17] = tested on: 786-0 renal
[18] = tested on: CAKI-1 renal
[19] = tested on: MDA-MB-468 breast
[20] = tested on: SF-295 CNS
[21] = tested on: SK-MEL-5 melanoma
[22] = tested on: SW-620 colon
[23] = tested on: OVCAR-4 ovarian
[24] = tested on: SNB-19 CNS
[25] = tested on: NCI-H23 lung
[26] = tested on: MALME-3M melanoma
[27] = tested on: NCI-H522 lung
[28] = tested on: MDA-MB-435
[29] = tested on: NCI/ADR-RES ovarian
[30] = tested on: HOP-62 NSCLC
[31] = tested on: UO-31 renal
[32] = tested on: SF-268 CNS
[33] = tested on: HT29 colon
[34] = tested on: HCT-116 colon
[35] = tested on: TK-10 renal
[36] = tested on: MCF7 breast
[37] = tested on: DU-145 prostate
[38] = tested on: RPMI-8226 leukemia
[39] = tested on: M14 melanoma
[40] = tested on: HS 578T breast
[41] = tested on: SR leukemia
[42] = tested on: SNB-75 CNS
[43] = tested on: A549 NSCLC
[44] = tested on: SK-MEL-2 melanoma
[45] = tested on: HCT-15 colon
[46] = tested on: U251 CNS
[47] = tested on: NCI-H460 lung
[48] = tested on: PC-3 prostate
[49] = tested on: UACC-62 melanoma
[50] = tested on: SK-MEL-28 melanoma
[51] = tested on: IGROV1 ovarian
[52] = tested on: A498 renal
[53] = tested on: LOX IMVI melanoma
[54] = tested on: UACC-257 melanoma
[55] = tested on: CCRF-CEM leukemia
[56] = tested on: ACHN renal
[57] = tested on: MDA-MB-231 breast
[58] = tested on: EKVX NSCLC
[59] = tested on: OVCAR-8 ovarian

`CCN1CCN(c2ccc(NC(=O)Nc3ccc(-c4cc(C(=O)NC)c5ncccc5n4)cc3)cc2C(F)(F)F)CC1` showed a GI50 [1] of 3.42 µM, a TGI [1] greater than 18 µM and a GI50 [2] of 0.657 µM. It also gave a TGI [2] greater than 18 µM, a GI50 [3] of 3.72 µM and a TGI [3] greater than 18 µM. The GI50 [4] was 2.82 µM, the TGI [4] was 5.23 µM and the GI50 [5] was 2.77 µM. For the same compound, the TGI [5] was 5.3 µM, the GI50 [6] was 2.78 µM and the TGI [6] was 5.67 µM. For the same compound, the GI50 [7] was 3.48 µM, the TGI [7] was 7.5 µM and the GI50 [8] was 4.15 µM. It also gave a TGI [8] of 14.2 µM, a GI50 [9] of 2.83 µM and a TGI [9] of 5.31 µM. For the same compound, the GI50 [10] was 2.55 µM, the TGI [10] was 5.06 µM and the GI50 [11] was 0.689 µM. For the same compound, the TGI [11] was greater than 18 µM, the GI50 [12] was 2.45 µM and the TGI [12] was 5.67 µM. For the same compound, the GI50 [13] was 2.7 µM, the TGI [13] was 6.36 µM and the GI50 [14] was 3.25 µM. It also gave a TGI [14] of 6.65 µM, a GI50 [15] of 0.494 µM and a TGI [15] of 1.66 µM. It also gave a GI50 [16] of 2.3 µM, a TGI [16] of 4.57 µM and a GI50 [17] of 0.295 µM. For the same compound, the TGI [17] was 0.583 µM, the GI50 [18] was 3.01 µM and the TGI [18] was 5.6 µM. The GI50 [19] was 2.48 µM, the TGI [19] was 5.03 µM and the GI50 [20] was 2.05 µM. The TGI [20] was 4.47 µM, the GI50 [21] was 2.05 µM and the TGI [21] was 4.26 µM. It also gave a GI50 [22] of 0.314 µM, a TGI [22] of 0.621 µM and a GI50 [23] of 2.63 µM. For the same compound, the TGI [23] was 5.64 µM, the GI50 [24] was 2.97 µM and the TGI [24] was 5.48 µM. For the same compound, the GI50 [25] was 2.68 µM, the TGI [25] was 5.68 µM and the GI50 [26] was 0.286 µM. For the same compound, the TGI [26] was 0.532 µM, the GI50 [27] was 3.23 µM and the TGI [27] was 6.4 µM. It also gave a GI50 [28] of 0.269 µM, a TGI [28] of 0.564 µM and a GI50 [29] of 1.78 µM. The TGI [29] was 8.09 µM, the GI50 [30] was 2.79 µM and the TGI [30] was 5.41 µM. It also gave a GI50 [31] of 2.71 µM, a TGI [31] of 5.14 µM and a GI50 [32] of 3.09 µM. For the same compound, the TGI [32] was 7 µM, the GI50 [33] was 0.525 µM and the TGI [33] was 2.11 µM. For the same compound, the GI50 [34] was 1.12 µM, the TGI [34] was 4.83 µM and the GI50 [35] was 3.86 µM. For the same compound, the TGI [35] was 6.63 µM, the GI50 [36] was 0.293 µM and the TGI [36] was 0.608 µM. The GI50 [37] was 2.23 µM, the TGI [37] was 4.9 µM and the GI50 [38] was 3.05 µM. It also gave a TGI [38] greater than 18 µM, a GI50 [39] of 0.4 µM and a TGI [39] of 1.05 µM. It also gave a GI50 [40] of 2.39 µM, a TGI [40] of 6.88 µM and a GI50 [41] of 0.67 µM. It also gave a TGI [41] greater than 18 µM, a GI50 [42] of 0.842 µM and a TGI [42] of 3.82 µM. The GI50 [43] was 0.466 µM, the TGI [43] was 1.3 µM and the GI50 [44] was 9.87 µM. For the same compound, the TGI [44] was greater than 18 µM, the GI50 [45] was 0.333 µM and the TGI [45] was 0.697 µM. For the same compound, the GI50 [46] was 2.7 µM, the TGI [46] was 5.53 µM and the GI50 [47] was 0.664 µM. For the same compound, the TGI [47] was 2.92 µM, the GI50 [48] was 2.88 µM and the TGI [48] was 6.03 µM. It also gave a GI50 [49] of 3.06 µM, a TGI [49] of 5.66 µM and a GI50 [50] of 0.322 µM. It also gave a TGI [50] of 0.582 µM, a GI50 [51] of 3.01 µM and a TGI [51] of 5.61 µM. The GI50 [52] was 2.74 µM, the TGI [52] was 5.31 µM and the GI50 [53] was 0.674 µM. For the same compound, the TGI [53] was 2.66 µM, the GI50 [54] was 3.05 µM and the TGI [54] was 6 µM. The GI50 [55] was 0.461 µM, the TGI [55] was 1.27 µM and the GI50 [56] was 2.39 µM. For the same compound, the TGI [56] was 4.73 µM, the GI50 [57] was 2.78 µM and the TGI [57] was 5.25 µM. The GI50 [58] was 2.94 µM, the TGI [58] was 5.63 µM and the GI50 [59] was 3.85 µM. The TGI [59] was 10.5 µM.

Compound `C=C1CCC2C3(C)COC(c4ccco4)OC3CCC2(C)C1CC(Sc1ccccc1)C1=CCOC1=O` (centres undefined) has a GI50 [1] of 2.82 µM, a TGI [1] of 36.4 µM and a GI50 [2] of 3.62 µM. The TGI [2] was greater than 100 µM, the GI50 [3] was 14.4 µM and the TGI [3] was greater than 100 µM. For the same compound, the GI50 [4] was 21.7 µM, the TGI [4] was 91 µM and the GI50 [5] was 9.46 µM. It also gave a TGI [5] greater than 100 µM, a GI50 [6] of 3.97 µM and a TGI [6] of 16.9 µM. It also gave a GI50 [7] of 80.1 µM, a TGI [7] greater than 100 µM and a GI50 [8] of 24.4 µM. It also gave a TGI [8] greater than 100 µM, a GI50 [9] of 21.1 µM and a TGI [9] greater than 100 µM. For the same compound, the GI50 [10] was 3.78 µM, the TGI [10] was 12.5 µM and the GI50 [11] was 4.41 µM. It also gave a TGI [11] greater than 100 µM, a GI50 [12] of 16.5 µM and a TGI [12] greater than 100 µM. The GI50 [13] was 6.22 µM, the TGI [13] was 62.6 µM and the GI50 [14] was 12.1 µM. The TGI [14] was greater than 100 µM, the GI50 [15] was 8.05 µM and the TGI [15] was 49.1 µM. It also gave a GI50 [16] of 4.12 µM, a TGI [16] of 15.6 µM and a GI50 [17] of 14.3 µM. It also gave a TGI [17] of 34.1 µM, a GI50 [18] of 18.4 µM and a TGI [18] greater than 100 µM. The GI50 [19] was 3.8 µM, the TGI [19] was 16.7 µM and the GI50 [20] was 25.7 µM. For the same compound, the TGI [20] was greater than 100 µM, the GI50 [21] was 10.8 µM and the TGI [21] was 22.9 µM. The GI50 [22] was 3.43 µM, the TGI [22] was 15 µM and the GI50 [23] was 14.7 µM. For the same compound, the TGI [23] was greater than 100 µM, the GI50 [24] was 42.3 µM and the TGI [24] was greater than 100 µM. It also gave a GI50 [25] of 21.5 µM, a TGI [25] of 88.9 µM and a GI50 [26] of 35.6 µM. It also gave a TGI [26] greater than 100 µM, a GI50 [27] of 7.51 µM and a TGI [27] of 20.4 µM. For the same compound, the GI50 [28] was 8.94 µM, the TGI [28] was greater than 100 µM and the GI50 [29] was 2.6 µM. For the same compound, the TGI [29] was 6.95 µM, the GI50 [30] was 23.5 µM and the TGI [30] was greater than 100 µM. For the same compound, the GI50 [31] was 13.4 µM, the TGI [31] was greater than 100 µM and the GI50 [32] was 59.5 µM. It also gave a TGI [32] greater than 100 µM, a GI50 [33] of 4.26 µM and a TGI [33] of 26.1 µM. For the same compound, the GI50 [34] was 4.39 µM, the TGI [34] was 17.9 µM and the GI50 [35] was 97.7 µM. It also gave a TGI [35] greater than 100 µM, a GI50 [36] of 3.75 µM and a TGI [36] of 41 µM. The GI50 [37] was 9.01 µM, the TGI [37] was 73.6 µM and the GI50 [38] was 2.36 µM. The TGI [38] was 8.23 µM, the GI50 [39] was 15.7 µM and the TGI [39] was 69.2 µM. It also gave a GI50 [40] of 35.7 µM, a TGI [40] greater than 100 µM and a GI50 [42] of 8.98 µM. It also gave a TGI [42] greater than 100 µM, a GI50 [43] of 18.7 µM and a TGI [43] greater than 100 µM. It also gave a GI50 [44] of 7.3 µM, a TGI [44] of 22 µM and a GI50 [45] of 6.66 µM. It also gave a TGI [45] of 52.9 µM, a GI50 [46] of 5.88 µM and a TGI [46] of 20.3 µM. The GI50 [47] was 21.7 µM, the TGI [47] was greater than 100 µM and the GI50 [48] was 6.71 µM. For the same compound, the TGI [48] was greater than 100 µM, the GI50 [49] was 12.4 µM and the TGI [49] was 31.8 µM. It also gave a GI50 [50] of 28.5 µM, a TGI [50] greater than 100 µM and a GI50 [51] of 17.8 µM. For the same compound, the TGI [51] was greater than 100 µM, the GI50 [52] was greater than 100 µM and the TGI [52] was greater than 100 µM. It also gave a GI50 [53] of 1.81 µM, a TGI [53] of 4 µM and a GI50 [54] of 21.9 µM. It also gave a TGI [54] greater than 100 µM, a GI50 [55] of 2.12 µM and a TGI [55] greater than 100 µM. It also gave a GI50 [56] of 14.1 µM, a TGI [56] greater than 100 µM and a GI50 [57] of 14.3 µM. For the same compound, the TGI [57] was 53.2 µM, the GI50 [58] was 11 µM and the TGI [58] was greater than 100 µM. For the same compound, the GI50 [59] was 3.05 µM and the TGI [59] was 14.3 µM.
